Experimental data from patent publication US11773078B2, “Furin inhibitors” (Glaxosmithkline Intellectual Property Development Limited, priority 2018, dated 2023).
Structures can show the parent of a compound that is named as a salt.

How the values were obtained:
[1] = biological target: T1, Furin (108-574-Tev-Flag-His) enzyme (Homo sapiens, UniProt P09958); assay: Furin enzyme assay; assay type: biochemical
T1 construct: Furin (108-574-Tev-Flag-His) enzyme was expressed and purified from CHO cells; TEV cleavage site (C); FLAG (C); His (C); made in house; host or cells: CHO cells
T1 sequence (P09958 108-574): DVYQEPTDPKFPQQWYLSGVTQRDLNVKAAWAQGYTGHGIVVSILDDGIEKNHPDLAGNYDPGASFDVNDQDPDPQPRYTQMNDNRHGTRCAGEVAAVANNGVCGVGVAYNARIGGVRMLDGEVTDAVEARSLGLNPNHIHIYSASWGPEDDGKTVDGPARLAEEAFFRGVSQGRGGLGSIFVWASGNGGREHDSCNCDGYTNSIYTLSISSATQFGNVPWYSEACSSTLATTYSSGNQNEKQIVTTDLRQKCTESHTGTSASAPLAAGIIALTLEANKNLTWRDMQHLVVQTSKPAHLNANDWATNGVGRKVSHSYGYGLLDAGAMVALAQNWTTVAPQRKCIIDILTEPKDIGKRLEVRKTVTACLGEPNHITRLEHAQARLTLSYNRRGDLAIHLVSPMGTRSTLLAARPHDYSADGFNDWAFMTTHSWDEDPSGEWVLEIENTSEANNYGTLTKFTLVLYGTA
Summary of the method: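 CHO-expressed, purified furin construct at 40 pM in 100 mM HEPES pH7.5, 1 mM CaCl2, 0.005% Triton X-100. Eleven-point 1:3 series, 0.00017–10 μM final, incubated 2 h at room temperature and read on Envision. pXC50 from four-parameter fit.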

[2] = biological target: T2, furin (endogenous protease) in U20S cells (Homo sapiens, UniProt P09958); assay: Furin cell-based assay (image-based, Golgi-targeted GFP with BMP10 furin/PCSK cleavage site); conditions: 24-hour incubation, read-out: furin golgi cell pXC50 (converted);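 further: Read-out is mean GFP fluorescence of Golgi puncta per cell by high-content imaging, retained when furin inhibited, over an eleven-point 0.00017–10 µM series, four-parameter fit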
T2 construct: the endogenous protease cleaves GFP; endogenous in cells; host or cells: U2OS cells transduced with a BacMam reporter
T2 sequence (P09958 108-794): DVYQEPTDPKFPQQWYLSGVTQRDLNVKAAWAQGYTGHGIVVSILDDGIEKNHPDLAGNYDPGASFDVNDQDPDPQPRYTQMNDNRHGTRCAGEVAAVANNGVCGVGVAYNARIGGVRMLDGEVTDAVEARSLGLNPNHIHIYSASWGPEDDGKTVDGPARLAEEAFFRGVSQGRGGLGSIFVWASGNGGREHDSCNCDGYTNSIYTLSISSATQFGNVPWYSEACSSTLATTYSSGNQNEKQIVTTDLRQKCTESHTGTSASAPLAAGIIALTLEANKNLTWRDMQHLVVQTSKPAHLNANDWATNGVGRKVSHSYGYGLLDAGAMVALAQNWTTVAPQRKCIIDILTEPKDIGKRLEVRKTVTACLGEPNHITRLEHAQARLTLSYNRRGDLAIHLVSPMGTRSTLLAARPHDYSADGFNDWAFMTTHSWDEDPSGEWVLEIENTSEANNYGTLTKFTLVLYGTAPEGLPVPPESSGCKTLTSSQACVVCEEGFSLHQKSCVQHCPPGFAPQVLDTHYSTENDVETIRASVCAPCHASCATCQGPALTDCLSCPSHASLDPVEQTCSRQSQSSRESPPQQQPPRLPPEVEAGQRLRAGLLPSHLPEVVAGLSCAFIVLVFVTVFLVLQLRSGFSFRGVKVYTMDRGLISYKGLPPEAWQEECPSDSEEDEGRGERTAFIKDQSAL

Row | Compound | furin enzyme pIC50 [1] | EC50 [2] [nM] | IC50 ([1]; read-out: furin enzyme pIC50 (converted)) [nM]
1 | CC(C)N1CCN(c2cnc(Oc3cc(CN4CCC(CC(=O)O)CC4)cc(-c4cc(Cl)cc(Cl)c4)n3)cn2)CC1 [Example 347, 2-(1-((2-(3,5-dichlorophenyl)-6-((5-(4-isopropylpiperazin-1-yl)pyrazin-2-yl)oxy)pyridin-4-yl)methyl)piperidin-4-yl)acetic acid] | 8.5 | 15.8 | –
2 | CC(O)CCN1CCN(c2cnc(Oc3cc(CN4CCC(CC(=O)O)CC4)cc(-c4cc(Cl)cc(Cl)c4)n3)cn2)CC1 (stereo not drawn) [Example 349, 2-(1-((2-(3,5-dichlorophenyl)-6-((5-(4-(3-hydroxybutyl)piperazin-1-yl)pyrazin-2-yl)oxy)pyridin-4-yl)methyl)piperidin-4-yl)acetic acid] | 8.6 | 10 | –
3 | CN1CCN(c2cnc(Oc3cc(CN4CCC(CCO)CC4)cc(-c4cc(Cl)cc(Cl)c4)n3)cn2)CC1 [Example 350, 2-(1-((2-(3,5-dichlorophenyl)-6-((5-(4-methylpiperazin-1-yl)pyrazin-2-yl)oxy)pyridin-4-yl)methyl)piperidin-4-yl)ethanol] | 8.6 | 1.26 | –
4 | CC(CC1CCN(Cc2cc(Oc3cnc(N4CCCN(C)CC4)cn3)nc(-c3cc(Cl)cc(Cl)c3)c2)CC1)C(=O)O (stereo not drawn) [Example 351, 3-(1-((2-(3,5-dichlorophenyl)-6-((5-(4-methyl-1,4-diazepan-1-yl)pyrazin-2-yl)oxy)pyridin-4-yl)methyl)piperidin-4-yl)-2-methylpropanoic acid] | 9.4 | 25.1 | –
5 | CN1C2CC1CN(c1cnc(Oc3cc(CN4CCC(CC(=O)O)CC4)cc(-c4cc(Cl)cc(Cl)c4)n3)cn1)C2 [Example 352, 2-(1-((2-(3,5-dichlorophenyl)-6-((5-(6-methyl-3,6-diazabicyclo[3.1.1]heptan-3-yl)pyrazin-2-yl)oxy)pyridin-4-yl)methyl)piperidin-4-yl)acetic acid] | 8.2 | 50.1 | –
6 | CN1CCN(c2cnc(Oc3cc(CN4CCC(OC5(C(=O)O)CC5)CC4)cc(-c4cc(Cl)cc(Cl)c4)n3)cn2)CC1 [Example 353, 1-((1-((2-(3,5-dichlorophenyl)-6-((5-(4-methylpiperazin-1-yl)pyrazin-2-yl)oxy)pyridin-4-yl)methyl)piperidin-4-yl)oxy)cyclopropanecarboxylic acid] | 8.1 | 25.1 | –
7 | CS(=O)(=O)CCCN1CCN(c2cnc(Oc3cc(CN4CCC(CC(=O)O)CC4)cc(-c4cc(Cl)cc(Cl)c4)n3)cn2)CC1 [Example 354, 2-(1-((2-(3,5-dichlorophenyl)-6-((5-(4-(3-(methylsulfonyl)propyl)piperazin-1-yl)pyrazin-2-yl)oxy)pyridin-4-yl)methyl)piperidin-4-yl)acetic acid] | 8.1 | 25.1 | –
8 | CN1CCN(c2ccc(Oc3cc(CN4CCC(CCO)CC4)cc(-c4cc(Cl)cc(Cl)c4)n3)nn2)CC1 [Example 360, 2-(1-((2-(3,5-dichlorophenyl)-6-((6-(4-methylpiperazin-1-yl)pyridazin-3-yl)oxy)pyridin-4-yl)methyl)piperidin-4-yl)ethanol] | 9 | 12.6 | –
9 | CN1CCN(c2ccc(Oc3cc(CN4CC[C@@H]5[C@H](CC4)[C@H]5C(=O)O)cc(-c4cc(Cl)cc(Cl)c4)n3)nn2)CC1 [Example 361, (1R,7S,8r)-4-((2-(3,5-dichlorophenyl)-6-((6-(4-methylpiperazin-1-yl)pyridazin-3-yl)oxy)pyridin-4-yl)methyl)-4-azabicyclo[5.1.0]octane-8-carboxylic acid] | 9 | 50.1 | –
10 | CN1CCCN(c2ccc(Oc3cc(CN4CC[C@@H]5[C@H](CC4)[C@H]5C(=O)O)cc(-c4cc(Cl)cc(Cl)c4)n3)nn2)CC1 [Example 362, (1R,7S,8r)-4-((2-(3,5-dichlorophenyl)-6-((6-(4-methyl-1,4-diazepan-1-yl)pyridazin-3-yl)oxy)pyridin-4-yl)methyl)-4-azabicyclo[5.1.0]octane-8-carboxylic acid] | – | 25.1 | 0.0316
11 | CC(=O)NCC1CCN(Cc2cc(Oc3ccc(N4CCN(CC(C)C(=O)O)CC4)nn3)nc(-c3cc(Cl)cc(Cl)c3)c2)CC1 (stereo not drawn) [Example 363, 3-(4-(6-((4-((4-(acetamidomethyl)piperidin-1-yl)methyl)-6-(3,5-dichlorophenyl)pyridin-2-yl)oxy)pyridazin-3-yl)piperazin-1-yl)-2-methylpropanoic acid] | 9.7 | 631 | –
12 | CC(=O)N[C@H]1[C@@H]2CCN(Cc3cc(Oc4cnc(N5CCN(CCC(=O)O)CC5)nc4)nc(-c4cc(Cl)cc(Cl)c4)c3)CC[C@@H]21 [Example 367] | 10.1 | 2.51 | –
13 | COC(=O)C(C)CCN1CCN(c2ncc(Oc3cc(CN4CCC(CNC(C)=O)CC4)cc(-c4cc(Cl)cc(Cl)c4)n3)cn2)CC1 (stereo not drawn) [Example 368, methyl 4-(4-(5-((4-((4-(acetamidomethyl)piperidin-1-yl)methyl)-6-(3,5-dichlorophenyl)pyridin-2-yl)oxy)pyrimidin-2-yl)piperazin-1-yl)-2-methylbutanoate] | 8.3 | 3.98 | –
14 | CC(=O)NCC1CCN(Cc2cc(Oc3cnc(N4CCN(CCC(C)(C)C(=O)O)CC4)nc3)nc(-c3cc(Cl)cc(Cl)c3)c2)CC1 [Example 370, 4-(4-(5-((4-((4-(Acetamidomethyl)piperidin-1-yl)methyl)-6-(3,5-dichlorophenyl)pyridin-2-yl)oxy)pyrimidin-2-yl)piperazin-1-yl)-2,2-dimethylbutanoic acid, 4 hydrochloride] | 9.2 | 6.31 | –
15 | Cc1c(CN2CCC(CC(=O)O)CC2)cc(-c2cc(Cl)cc(Cl)c2)nc1Oc1ccc(N2CCN(C)CC2)nn1 [Example 371, 2-(1-((6-(3,5-Dichlorophenyl)-3-methyl-2-((6-(4-methylpiperazin-1-yl)pyridazin-3-yl)oxy)pyridin-4-yl)methyl)piperidin-4-yl)acetic acid] | 8.9 | 31.6 | –

Results, then the compound that gave them:

Row | furin enzyme pIC50 [1] | EC50 [2] [nM] | IC50 ([1]; read-out: furin enzyme pIC50 (converted)) [nM] | Compound
16 | 8.5 | 12.6 | – | CN1C[C@@H]2C[C@H]1CN2c1cnc(Oc2cc(CN3CCC(CC(=O)O)CC3)cc(-c3cc(Cl)cc(Cl)c3)n2)cn1 [Example 346, 2-(1-((2-(3,5-dichlorophenyl)-6-((5-((1S,4S)-5-methyl-2,5-diazabicyclo+2.2.1+heptan-2-yl)pyrazin-2-yl)oxy)pyridin-4-yl)methyl)piperidin-4-yl)acetic acid]
17 | 8.4 | 50.1 | – | O=C(O)CC1CCN(Cc2cc(Oc3cnc(N4CCN5CCC4C5)cn3)nc(-c3cc(Cl)cc(Cl)c3)c2)CC1 (stereo not drawn) [Example 348, 2-(1-((2-((5-(1,4-diazabicyclo[3.2.1]octan-4-yl)pyrazin-2-yl)oxy)-6-(3,5-dichlorophenyl)pyridin-4-yl)methyl)piperidin-4-yl)acetic acid]
18 | 8.6 | 10 | – | CCN1CCCN(c2ccc(Oc3cc(CN4CCC(CC(=O)O)CC4)cc(-c4cc(Cl)cc(Cl)c4)n3)nn2)CC1 [Example 355, 2-(1-((2-(3,5-dichlorophenyl)-6-((6-(4-ethyl-1,4-diazepan-1-yl)pyridazin-3-yl)oxy)pyridin-4-yl)methyl)piperidin-4-yl)acetic acid]
19 | 8.6 | 31.6 | – | CN1CCCN(c2ccc(Oc3cc(CN4CCC(CC(=O)O)CC4)cc(-c4cc(Cl)cc(Cl)c4)n3)nn2)CC1 [Example 356, 2-(1-((2-(3,5-dichlorophenyl)-6-((6-(4-methyl-1,4-diazepan-1-yl)pyridazin-3-yl)oxy)pyridin-4-yl)methyl)piperidin-4-yl)acetic acid]
20 | 8.5 | 100 | – | CN1C[C@@H]2C[C@H]1CN2c1ccc(Oc2cc(CN3CCC(CC(=O)O)CC3)cc(-c3cc(Cl)cc(Cl)c3)n2)nn1 [Example 357, 2-(1-((2-(3,5-dichlorophenyl)-6-((6-((1S,4S)-5-methyl-2,5-diazabicyclo[2.2.1]heptan-2-yl)pyridazin-3-yl)oxy)pyridin-4-yl)methyl)piperidin-4-yl)acetic acid]
21 | 9.1 | 20 | – | CCN1CCN(c2ccc(Oc3cc(CN4CCC(CC(=O)O)CC4)cc(-c4cc(Cl)cc(Cl)c4)n3)nn2)CC1 [Example 358, 2-(1-((2-(3,5-dichlorophenyl)-6-((6-(4-ethylpiperazin-1-yl)pyridazin-3-yl)oxy)pyridin-4-yl)methyl)piperidin-4-yl)acetic acid]
22 | 9 | 63.1 | – | CN1CCN(c2ccc(Oc3cc(CN4CCC(CC(=O)O)CC4)cc(-c4cc(Cl)cc(Cl)c4)n3)nn2)CC1 [Example 359, 2-(1-((2-(3,5-dichlorophenyl)-6-((6-(4-methylpiperazin-1-yl)pyridazin-3-yl)oxy)pyridin-4-yl)methyl)piperidin-4-yl)acetic acid]
23 | 9.9 | 126 | – | C[C@@H](CC1CCN(Cc2cc(Oc3ccc(N4CCN(C)CC4)nn3)nc(-c3cc(Cl)cc(Cl)c3)c2)CC1)C(=O)O [Example 365, (S)-3-(1-((2-(3,5-dichlorophenyl)-6-((6-(4-methylpiperazin-1-yl)pyridazin-3-yl)oxy)pyridin-4-yl)methyl)piperidin-4-yl)-2-methylpropanoic acid]
24 | 8.8 | 31.6 | – | CCN1C[C@@H]2C[C@H]1CN2c1ccc(Oc2cc(CN3CCC(CC(=O)O)CC3)cc(-c3cc(Cl)cc(Cl)c3)n2)nn1 [Example 366, 2-(1-((2-(3,5-dichlorophenyl)-6-((6-((1S,4S)-5-ethyl-2,5-diazabicyclo[2.2.1]heptan-2-yl)pyridazin-3-yl)oxy)pyridin-4-yl)methyl)piperidin-4-yl)acetic acid]
